# Data from BindingDB's records for patent US8802711 (Abbvie, 2014).
# Biological target: Transient receptor potential cation channel subfamily V member 1 (Homo sapiens, UniProt Q8NER1)
# Assay: FLIPR Assay
# Method: All compounds were tested over a 12-point one-third-log concentration range. Compound stocks, 10 mM, were prepared in DMSO, and diluted serially across a 384-well plate using a Bravo BenchCel workstation (Agilent Technologies, Santa Clara, Calif.).
# Sequence of Transient receptor potential cation channel subfamily V member 1 (Q8NER1 whole entry): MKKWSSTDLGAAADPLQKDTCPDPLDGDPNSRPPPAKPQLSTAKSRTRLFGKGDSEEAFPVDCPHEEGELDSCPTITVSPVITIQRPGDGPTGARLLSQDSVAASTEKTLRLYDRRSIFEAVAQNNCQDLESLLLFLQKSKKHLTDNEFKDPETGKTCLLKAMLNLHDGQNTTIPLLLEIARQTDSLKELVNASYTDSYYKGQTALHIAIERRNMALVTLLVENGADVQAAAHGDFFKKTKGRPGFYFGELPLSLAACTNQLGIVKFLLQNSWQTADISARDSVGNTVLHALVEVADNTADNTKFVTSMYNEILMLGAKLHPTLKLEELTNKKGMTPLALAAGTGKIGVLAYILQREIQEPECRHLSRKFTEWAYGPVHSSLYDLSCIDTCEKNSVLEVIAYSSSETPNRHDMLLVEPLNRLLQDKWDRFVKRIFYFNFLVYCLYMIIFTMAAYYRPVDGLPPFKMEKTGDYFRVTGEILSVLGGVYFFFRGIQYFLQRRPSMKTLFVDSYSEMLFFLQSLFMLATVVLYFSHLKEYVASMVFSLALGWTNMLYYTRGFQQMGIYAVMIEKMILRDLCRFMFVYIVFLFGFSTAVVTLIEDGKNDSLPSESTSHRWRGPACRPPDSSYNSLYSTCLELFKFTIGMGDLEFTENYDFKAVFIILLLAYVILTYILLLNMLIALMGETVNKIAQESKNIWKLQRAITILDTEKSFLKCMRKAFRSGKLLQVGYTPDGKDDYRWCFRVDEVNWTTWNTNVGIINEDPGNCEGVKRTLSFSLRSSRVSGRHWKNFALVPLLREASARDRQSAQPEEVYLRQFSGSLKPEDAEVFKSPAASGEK
compound,measurement,value
"Cc1cccnc1N1CC=C(C(=O)Nc2ccc(C(=O)NC(F)(F)F)cc2)CC1 [US8802711, L]",IC50,100 nM
